The results in this text go back to a melting point compilation (Tetko et al.).

SMILES strings stand for the structures.

Turning to `NC(C(=O)O)c1ccccc1Br` (stereo unspecified), the melting point was 199 to 201 °C.

As to `COCCn1nc(C)c(C(C)=O)c1C`, the melting point was 31 to 33 °C.

`N#CCc1ccnc(N)c1` yielded a melting point of 104 to 106 °C.

For `CC(O)(C(=O)O)c1ccc(Cl)cc1` (stereo unspecified), the melting point lay within 129 to 131 °C.

In turn, `COc1ccc(CCCCC(=O)O)cc1` showed a melting point of 112 to 114 °C.

The molecule `COc1cccc(-c2nn(-c3ccc(C)cc3)cc2C(=O)O)c1` had a melting point of 162 to 164 °C.

With `Cc1ccc(-n2[nH]c(C(=O)O)cc2=O)cc1`, the melting point fell in the range of 259 to 261 °C.

As for `O=C(O)CNC1CCS(=O)(=O)C1` (stereo unspecified), the melting point lay in the range of 241 to 243 °C.

For the molecule `Cn1c(-c2ccccc2)c(C(=O)CCl)c2ccccc21`, the melting point lay within 146 to 148 °C.

`CCOC(=O)c1sc2nc(CS(=O)(=O)CC(=O)O)[nH]c(=O)c2c1C` showed a melting point of 277 to 279 °C.

The molecule `CC(C)(C)OC(=O)Nc1cnsn1` had a melting point of 93 to 95 °C.

Molecule `O=C(O)/C=C/c1ccc(F)cc1[N+](=O)[O-]` returned a melting point of 176 to 178 °C.

As for `N#Cc1cc(Br)cc(S(=O)(=O)Cl)c1`, the melting point lay within 74 to 76 °C.

`N#CCc1nc2ccc(Br)cc2c(=O)[nH]1` had a melting point of 279 to 281 °C.

In the case of `O=C(O)C1CCCN1c1ncccn1` (stereo unspecified), the melting point is 139 to 141 °C.

`CCOC(=O)CS(N)(=O)=O` had a melting point of 62 to 64 °C.

The molecule `COC(=O)CC1=NC(=O)CS1` displayed a melting point of 184 to 186 °C.

Molecule `Cn1cnnc1-c1ccc(N)cc1` had a melting point of 256 to 258 °C.

As for `CCOC(=O)Nc1ccc(Br)cc1`, the melting point is 79 to 81 °C.

`COc1ccc(-c2cc(CBr)on2)cc1` yielded a melting point of 88 to 90 °C.

In the case of `CCC(C)(C#N)NC(=O)c1ccccc1` (stereo unspecified), the melting point lay within 138 to 140 °C.

Take `COc1ccc(C(CNC(=O)OCC(F)(F)F)N2CCCC2)cc1` (stereo unspecified): the melting point was in the range of 55 to 57 °C.

`CCOC(=O)c1ccc(NC(=O)CCl)cc1` displayed a melting point of 38 to 40 °C.

On to `O=[N+]([O-])c1ccc2nc(S)oc2c1`, for which the melting point lay within 192 to 194 °C.

As to `Cc1ccc(Br)cc1N`, the melting point lay within 31 to 33 °C.

Molecule `NS(=O)(=O)c1ccc(F)cc1C(=O)O` had a melting point of 218 to 220 °C.

In the case of `CC(Cl)c1nc2scc(-c3ccccc3)c2c(=O)[nH]1` (stereo unspecified), the melting point was 165 to 167 °C.

With `O=C(O)c1cc2c(c(S(=O)(=O)Cl)c1)CCCC2`, the melting point was 193 to 195 °C.

On to `CN(C)C(=O)CN1CCNCC1`, for which the melting point lay within 35 to 37 °C.

Turning to `CN(C(=O)c1ccc(Cl)cc1)c1ccc(O)cc1`, the melting point lay within 205 to 207 °C.

`Clc1nnc(-c2ccccc2)s1` came in with a melting point of 82 to 84 °C.

Regarding `O=C(O)CC1CCCCO1` (stereo unspecified), the melting point was 49 to 51 °C.

`O=C1NC(=O)N(C2CCCCC2)C1=O` gave a melting point of 187 to 189 °C.

In turn, `Cc1ccc(CO)cc1N` showed a melting point of 108 to 110 °C.

`CC(Oc1cccc(C#N)c1)C(=O)O` (stereo unspecified) yielded a melting point of 110 to 112 °C.

The molecule `CC1(C)NC(=O)N2C1=NC(=N)C2(C)C` gave a melting point of 236 to 238 °C.

Turning to `O=C(NC=C(Cl)Cl)c1cccc(Br)c1`, the melting point is 91 to 93 °C.

In turn, `O=C1CCC(O)(c2cccc(Cl)c2)CC1` displayed a melting point of 119 to 121 °C.

In the case of `N#Cc1[nH]c(=O)n(Cc2ccccc2)c1NCc1ccccc1`, the melting point fell in the range of 140 to 142 °C.

`O=[N+]([O-])c1cccc2c1NCCC2` gave a melting point of 69 to 71 °C.

`O=C(Nc1ccc(F)cc1)NC1CCNC1` (stereo unspecified) displayed a melting point of 150 to 152 °C.

`N#Cc1ccc(C(=O)CC(=O)C(F)(F)F)cc1` displayed a melting point of 128 to 130 °C.

In turn, `CCCN(C(=O)c1ccccc1N)C(C)C` returned a melting point of 64 to 66 °C.

The molecule `CCOC1CCN(C(=O)Nc2cccc(C(=O)O)c2)CC1` gave a melting point of 179 to 181 °C.

Regarding `CC(=O)Nc1cccc(CN)c1`, the melting point is 82 to 84 °C.

`C=CCNS(=O)(=O)c1ccc(C(=O)O)cc1` showed a melting point of 215 to 217 °C.

Consider `C=CC(=O)ON=C(N)c1ccc(Cl)cc1`, for which the melting point lay within 120 to 122 °C.

`CC(N)Cc1cccc(O)c1` (stereo unspecified) came in with a melting point of 45 to 47 °C.

Molecule `O=C1CCC(O)(C(F)(F)F)CC1` gave a melting point of 123 to 125 °C.

For `O=C(NC(c1nn[nH]n1)C1CC1)c1ccccc1` (stereo unspecified), the melting point lay in the range of 189 to 191 °C.

Molecule `CC(NC(=O)CCl)c1ccc(F)cc1` (stereo unspecified) displayed a melting point of 71 to 73 °C.

`O=C(CCl)Nc1ccccc1C(=O)Nc1ccc2c(c1)OCO2` had a melting point of 169 to 171 °C.

With `Cc1sc2ncn(CCC(=O)O)c(=O)c2c1C`, the melting point lay in the range of 194 to 196 °C.

In turn, `Cc1ccc(-n2cc(C=O)c(C(C)(C)C)n2)cc1` registered a melting point of 79 to 81 °C.

Turning to `O=C(Nc1cccc2ccccc12)OCC(F)(F)F`, the melting point was in the range of 109 to 111 °C.

As for `Nc1nc2ccc(Br)cc2s1`, the melting point was 119 to 121 °C.

`C=CCNC(=O)NC(=O)C(C)Cl` (stereo unspecified): the melting point lay within 68 to 70 °C.

`Nc1ccc(C(=O)N2CCCCC2)nc1` registered a melting point of 170 to 172 °C.

Turning to `O=C(O)COC(c1ccccc1)c1ccccc1`, the melting point was 81 to 83 °C.

Regarding `COc1cc(C=O)cc(Cl)c1OC`, the melting point was 56 to 58 °C.

On to `CC(C)c1ccc(-c2cc(N)on2)cc1`, for which the melting point fell in the range of 113 to 115 °C.

Regarding `Cc1[nH]c(=O)[nH]c1C`, the melting point is 239 to 241 °C.

In the case of `CC(=O)c1cc(C(=O)O)ccc1O`, the melting point was 239 to 241 °C.

As for `CC(C)NC(=O)Nc1ccccc1C(=O)O`, the melting point fell in the range of 178 to 180 °C.

`Cc1ccc(-c2nn(-c3ccccc3)cc2C=CC(=O)O)cc1` displayed a melting point of 220 to 222 °C.

Regarding `CC(Cc1ccccc1Cl)C(=O)O` (stereo unspecified), the melting point was in the range of 56 to 58 °C.

`Nc1cccc(S(=O)(=O)N2CCCCCC2)c1` returned a melting point of 73 to 77 °C.

Molecule `NNC(=O)c1ccc(CSc2nc3ccccc3[nH]2)cc1` had a melting point of 64 to 66 °C.

With `O=[N+]([O-])c1ccc(-c2cn3ccsc3n2)cc1`, the melting point was 284 to 286 °C.

`NCC(O)c1ccco1` (stereo unspecified) returned a melting point of 80 to 82 °C.

Take `NS(=O)(=O)CC1CCCC1`: the melting point was in the range of 42 to 44 °C.

Molecule `O=[N+]([O-])C=Cc1cccc2ccccc12` yielded a melting point of 87 to 89 °C.

The molecule `NC(=O)c1ccccc1OCc1cccc(C(=O)O)c1` returned a melting point of 238 to 240 °C.

`Nc1scnc1-c1ccccc1`: the melting point was 130 to 132 °C.

In turn, `Nc1ccccc1SCC(O)c1ccccc1` (stereo unspecified) showed a melting point of 61 to 63 °C.

Regarding `CCN(CC)S(=O)(=O)c1ccc(NN)nc1`, the melting point is 134 to 136 °C.

In turn, `COc1ccc(C(=O)Nc2ccc(C(=O)O)cc2)cc1OC` came in with a melting point of 259 to 261 °C.

Consider `CC1N=C(S)N(C2CC2)C1=O` (stereo unspecified), for which the melting point is under 17 °C.

Take `COC(=O)c1ccc(-c2csc(N)n2)cc1`: the melting point is 239 to 241 °C.

In the case of `O=C(O)c1cc(S(=O)(=O)Cl)ccc1Br`, the melting point was in the range of 115 to 117 °C.

As to `CS(=O)(=O)Nc1cccc(O)c1`, the melting point lay within 93 to 95 °C.

In turn, `Cc1oc(C(=O)O)cc1S(N)(=O)=O` registered a melting point of 225 to 227 °C.

`Nc1nc(-c2ccc3c(c2)CC(=O)N3)cs1` had a melting point of 249 to 251 °C.

`CN(C)c1cc(C(=O)O)cc(Cl)n1` registered a melting point of 194 to 196 °C.

As for `O=C(O)c1cnoc1-c1ccc(Cl)s1`, the melting point lay in the range of 191 to 193 °C.

Regarding `O=C(O)CC1CSCCS1` (stereo unspecified), the melting point fell in the range of 77 to 79 °C.

`CC(C)NC(=O)c1ccc(C(=O)O)cc1`: the melting point lay within 179 to 181 °C.

On to `N#Cc1cnc2ccc(Cl)cc2c1Cl`, for which the melting point is 129 to 131 °C.

The molecule `CC(C(O)c1ccccc1)N(C)S(=O)(=O)c1ccc([N+](=O)[O-])cc1` (stereo unspecified) had a melting point of 132 to 134 °C.

`COCc1cc(C(=O)O)ccc1F` had a melting point of 100 to 102 °C.

In the case of `Cc1cc2nc(-c3ccccc3)cc(C(=O)O)c2cc1C`, the melting point is 251 to 253 °C.

For the molecule `Nc1cc(C(=O)O)ccc1OC(F)F`, the melting point lay in the range of 155 to 157 °C.

As for `O=C(Nc1nccs1)OCC(F)(F)F`, the melting point was 167 to 169 °C.

As for `O=C(O)c1ccc(Cl)c(S(=O)(=O)Nc2ccccc2Cl)c1`, the melting point was in the range of 213 to 215 °C.

In turn, `O=c1[nH]cnc2c1CCCN2` yielded a melting point of 258 to 260 °C.

`c1ccc(CN2CCN(c3ccccc3)CC2)cc1` yielded a melting point of 51 to 53 °C.

For `Cc1ccc(F)cc1-c1nc2ccccc2[nH]1`, the melting point was 223 to 225 °C.

On to `Nc1ncncc1-c1ccccc1`, for which the melting point lay within 155 to 157 °C.

Turning to `O=C(O)CCN1C(=O)Cc2ccccc2C1=O`, the melting point was in the range of 148 to 150 °C.

Regarding `CN(C)S(=O)(=O)c1cccc(C(=O)NN)c1`, the melting point was in the range of 149 to 151 °C.

Molecule `O=C1c2ccccc2C(=O)N1CCc1ncc[nH]1` yielded a melting point of 243 to 245 °C.

As to `O=C(O)c1ccc(OCC2CCCO2)cc1` (stereo unspecified), the melting point is 130 to 132 °C.

For `Cc1c(Cl)cnc(Cl)c1C#N`, the melting point lay in the range of 76 to 78 °C.

Molecule `Cc1cc(C)c2c(N)nsc2n1` yielded a melting point of 180 to 182 °C.

`Cc1cc(C)c2c(C)nn(-c3ccc(N)cc3)c2n1` displayed a melting point of 104 to 106 °C.

Take `NS(=O)(=O)c1ccc(CCCl)cc1`: the melting point fell in the range of 178 to 180 °C.

Regarding `c1ncn(C2CCNCC2)n1`, the melting point was in the range of 97 to 99 °C.

The molecule `Cc1cc(Cl)c(C(=O)O)cc1C` showed a melting point of 180 to 182 °C.

For the molecule `O=C(O)c1cc(Cl)ncc1[N+](=O)[O-]`, the melting point was 178 to 180 °C.

Consider `CC(C)CN1C(=O)NC(=O)C1=O`, for which the melting point was 145 to 148 °C.

As to `CN(CC(N)=O)C1CCCC1`, the melting point lay within 78 to 80 °C.

For `Cc1ccc(NC(=O)CC(N)=NO)cc1`, the melting point lay in the range of 168 to 170 °C.

`O=C(O)c1cnc(-c2ccccc2)s1` gave a melting point of 187 to 189 °C.

In turn, `Cc1c(Br)cc(S(C)(=O)=O)cc1C(=O)O` gave a melting point of 134 to 136 °C.

The molecule `Cc1cc(N)n(C2CCS(=O)(=O)C2)n1` (stereo unspecified) came in with a melting point of 215 to 217 °C.

Take `Cc1cc(C(=O)O)c2c(C)nn(-c3ccccc3)c2n1`: the melting point fell in the range of 195 to 197 °C.

Molecule `CNS(=O)(=O)c1cc(/C=C/C(=O)O)ccc1OC` yielded a melting point of 238 to 240 °C.

In turn, `Fc1cc(Br)cc2c(Cl)ccnc12` displayed a melting point of 149 to 151 °C.

Molecule `CCOC(=O)COc1cccc(Br)c1` registered a melting point of 40 to 42 °C.

Molecule `O=C(O)C=Cc1cccc2cccnc12` had a melting point of 188 to 190 °C.

`O=C(Nc1cccc(N2CCOC2=O)c1)OCC(F)(F)F` displayed a melting point of 152 to 154 °C.

As a reminder, the melting point is the temperature, or range, at which the solid turns liquid.
